Data as given in patent publication US20090035306A1 (KALYPSYS, INC., priority 2006, published 2009).

Target: T1, human TGR5 (Homo sapiens, UniProt Q8TDU6)
T1 construct: expressed in transfected cells
T1 sequence (Q8TDU6 1-330): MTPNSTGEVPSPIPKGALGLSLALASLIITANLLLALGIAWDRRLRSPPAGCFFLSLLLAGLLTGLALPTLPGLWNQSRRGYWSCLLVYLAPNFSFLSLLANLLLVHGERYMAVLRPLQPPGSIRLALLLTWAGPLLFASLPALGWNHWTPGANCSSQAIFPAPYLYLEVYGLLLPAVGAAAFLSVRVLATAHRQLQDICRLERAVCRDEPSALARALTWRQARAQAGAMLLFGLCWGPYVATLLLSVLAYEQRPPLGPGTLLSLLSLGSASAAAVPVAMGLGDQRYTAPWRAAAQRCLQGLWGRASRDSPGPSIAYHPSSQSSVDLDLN
Test: cAMP production assay in HEK293 cells stably expressing TGR5 (LANCE TR-FRET)
Type: cell-based
Details: 30 minutes stimulation, read-out: cAMP Production in 293-TGR5 Cells EC50
Protocol: HEK293 cells stably expressing TGR5 (HEK293-TGR5) were established by stably transfecting HEK-293 cells with an expression vector (pcDNA 3.1, Invetrogen) inserted with human TGR5 cDNA using Fugene6 (Roche, Indianapolis, Ind.) according to conventional methods. Cells were grown in DMEM (invitrogen, Carlsbad, Calif.) supplemented with 10% FBS, 1% penicillin/streptomycin under geneticin selection. The presence of TGR5 transcripts in these cells was confirmed using branched DNA (bDNA, Genospectra, Inc., Fremont Calif.) following the manufacturer's protocol and using specific probes for human TGR5. cAMP production assay was performed in high throughput 1536 well format using LANCE cAMP detection kit (Perkin Elmer Inc., Boston, Mass.) according to the manufacturer's protocol. Briefly, HEK293-TGR5 cells were harvested using non-enzymatic cell dissociation buffer (Invitrogen, Carlsbad, Calif.) and suspended in DMEM supplemented with 0.1% FBS at a density of 800,000 cells/ml. Alexa antibody was added to the cell suspension, and 4 ul of the mixture was dispensed in white opaque tissue culture treated Greiner 1536 well plates (USA Scientific, Inc., Ocala, Fla.). After an overnight incubation at 37 C in an atmosphere of 10% CO2 and 95% humidity, 1 ul of 5 mM IBMX (Sigma, St. Louis, Mo.) solution in DMEM was dispensed for a final concentration of 1 mM. Cells were then stimulated with test compounds for 30 minutes, after which time 5 ul of detection reagent was added and incubated for 1-7 hrs at room temperature. TR-FRET signal was detected using the Viewlux (Perkin Elmer Inc., Boston Mass.). EC50 values were determined using Graph Pad Prizm analysis (GraphPad Software, Inc). The EC50 values for a wide range of bile acids generated from this assay were in agreement with the values published in the scientific literature. […] The symbol (+) denotes an EC50 value of ≦10 μM while the symbol (−) denotes an EC50 value of >10 μM (see Table 1).

Row | SMILES | EC50 [µM]
1 | O=c1c2ccccc2nc(-c2ccccc2F)n1NCc1ccc(C(F)(F)F)c(F)c1 [Example 21, 3-(3-fluoro-4-(trifluoromethyl)benzylamino)-2-(2-fluorophenyl)quinazolin-4(3H)-one] | ≤ 10
2 | O=c1c2ccccc2nc(-c2ccc(C(F)(F)F)cc2)n1NCc1ccc(Br)cc1 [Example 9, 3-(4-bromobenzylamino)-2-(4-(trifluoromethyl)phenyl)quinazolin-4(3H)-one] | ≤ 10
3 | CN(C)c1ccc(-c2nc3ccccc3c(=O)n2NCc2ccc(Cl)cc2)cc1 [Example 43, 3-(4-chlorobenzylamino)-2-(4-(dimethylamino)phenyl)quinazolin-4(3H)-one] | ≤ 10
4 | COc1ccc2c(=O)n(NCc3ccc(Cl)cc3)c(-c3ccc(F)cc3)nc2c1 [Example 35, 3-(4-chlorobenzylamino)-2-(4-fluorophenyl)-7-methoxyquinazolin-4(3H)-one] | > 10
5 | COc1cc(OC)cc(-c2nc3ccccc3c(=O)n2NCc2ccc(Br)cc2)c1 [Example 58, 3-(4-bromobenzylamino)-2-(3,5-dimethoxyphenyl)quinazolin-4(3H)-one] | ≤ 10
6 | O=c1c2ccccc2nc(-c2ccc(Cl)cc2)n1NCc1ccc(F)c(F)c1 [Example 53, 2-(4-chlorophenyl)-3-(3,4-difluorobenzylamino)quinazolin-4(3H)-one] | ≤ 10
7 | COc1cccc(-c2nc3ccccc3c(=O)n2NCc2ccc(Cl)cc2)c1 [Example 56, 3-(4-chlorobenzylamino)-2-(3-methoxyphenyl)quinazolin-4(3H)-one] | ≤ 10
8 | O=c1c2ccccc2nc(-c2ccccc2F)n1NCc1ccc(F)c(F)c1 [Example 14, 3-(3,4-difluorobenzylamino)-2-(2-fluorophenyl)quinazolin-4(3H)-one] | ≤ 10
9 | O=c1c2ccccc2nc(-c2ccccc2F)n1NCc1ccc(Cl)cc1Cl [Example 4, 3-(2,4-dichlorobenzylamino)-2-(2-fluorophenyl)quinazolin-4(3H)-one] | ≤ 10
10 | O=c1c2ccccc2nc(-c2ccco2)n1NCc1ccc(Br)cc1 [Example 40, 3-(4-bromobenzylamino)-2-(furan-2-yl)quinazolin-4(3H)-one] | ≤ 10
11 | O=c1c2ccccc2nc(-c2ccccc2)n1NCc1ccccc1 [Example 6, 3-(benzylamino)-2-phenylquinazolin-4(3H)-one] | ≤ 10
12 | O=c1c2ccccc2nc(-c2ccc(F)cc2)n1NCc1ccc2ccccc2c1 [Example 38, 2-(4-fluorophenyl)-3-(naphthalen-2-ylmethylamino)quinazolin-4(3H)-one] | ≤ 10
13 | O=c1c2ccccc2nc(-c2ccccc2C(F)(F)F)n1NCc1ccc(Br)cc1 [Example 8, 3-(4-bromobenzylamino)-2-(2(trifluoromethyl)phenyl)quinazolin-4(3H)-one] | ≤ 10
14 | O=c1c2ccccc2nc(-c2ccc(Cl)cc2)n1NCc1ccc(Br)cc1 [Example 47, 3-(4-bromobenzylamino)-2-(4-chlorophenyl)quinazolin-4(3H)-one] | ≤ 10
15 | COc1ccc2c(=O)n(NCc3ccc(C(F)(F)F)cc3)c(-c3ccc(F)cc3)nc2c1 [Example 36, 2-(4-fluorophenyl)-7-methoxy-3-(4-(trifluoromethyl)benzylamino)quinazolin-4(3H)-one] | > 10
16 | CC(C)c1ccc(CNn2c(-c3ccc(F)cc3)nc3ccccc3c2=O)cc1 [Example 2, 2-(4-fluorophenyl)-3-(4-isopropylbenzylamino)quinazolin-4(3H)-one] | > 10
17 | O=c1c2ccccc2nc(CCc2ccccc2)n1NCc1ccc(F)cc1F [Example 16, 3-(2,4-difluorobenzylamino)-2-phenethylquinazolin-4(3H)-one] | ≤ 10
18 | COc1ccc2c(=O)n(NCc3ccc(F)cc3F)c(-c3ccc(F)cc3)nc2c1 [Example 34, 3-(2,4-difluorobenzylamino)-2-(4-fluorophenyl)-7-methoxy quinazolin-4(3H)-one] | > 10
19 | O=c1c2ccccc2nc(-c2cccc(Cl)c2)n1NCc1ccc(C(F)(F)F)cc1 [Example 49, 2-(3-chlorophenyl)-3-(4-(trifluoromethyl)benzylamino)quinazolin-4(3H)-one] | ≤ 10
20 | O=c1c2ccccc2nc(-c2cccc(F)c2)n1NCc1ccc(F)cc1F [Example 7, 3-(2,4-difluorobenzylamino)-2-(3-fluorophenyl)quinazolin-4(3H)-one] | ≤ 10
21 | O=c1c2ccccc2nc(-c2ccccc2F)n1NCc1cc(F)cc(F)c1 [Example 13, 3-(3,5-difluorobenzylamino)-2-(2-fluorophenyl)quinazolin-4(3H)-one] | ≤ 10
22 | COc1ccccc1-c1nc2ccccc2c(=O)n1NCc1ccc(Br)cc1 [Example 19, 3-(4-bromobenzylamino)-2-(2-methoxyphenyl)quinazolin-4(3H)-one] | > 10
23 | N#Cc1ccc(CNn2c(-c3ccc(F)cc3)nc3ccccc3c2=O)cc1 [Example 32, 4-((2-(4-fluorophenyl)-4-oxoquinazolin-3(4H)-ylamino)methyl)benzonitrile] | ≤ 10

The remaining lines, values ahead:

Row | EC50 [µM] | SMILES
24 | > 10 | COc1ccc(-c2nc3ccccc3c(=O)n2NCc2ccc(Cl)cc2)cc1OC [Example 62, 3-(4-chlorobenzylamino)-2-(3,4-dimethoxyphenyl)quinazolin-4(3H)-one]
25 | ≤ 10 | CCCN(Cc1ccc(Br)cc1)n1c(-c2ccc(F)cc2)nc2ccccc2c1=O [Example 94, 3-((4-bromobenzyl)(propyl)amino)-2-(4-fluorophenyl)quinazolin-4(3H)-one]
26 | ≤ 10 | COc1cc(-c2nc3ccccc3c(=O)n2NCc2ccc(Cl)cc2)ccc1O [Example 100, 3-(4-chlorobenzylamino)-2-(4-hydroxy-3-methoxyphenyl)quinazolin-4(3H)-one]
27 | ≤ 10 | COc1cc(-c2nc3ccccc3c(=O)n2NCc2ccc(Cl)cc2)ccc1Cl [Example 75, 3-(4-Chloro-benzylamino)-2-(4-chloro-3-methoxy-phenyl)-3H-quinazolin-4-one]
28 | ≤ 10 | O=c1c2ccccc2nc(-c2cccc(O)c2)n1NCc1ccc(Br)cc1 [Example 96, 3-(4-bromobenzylamino)-2-(3-hydroxyphenyl)quinazolin-4(3H)-one]
29 | ≤ 10 | O=c1c2ccccc2nc(-c2cccc(F)c2)n1NCc1ccc(F)c(C(F)(F)F)c1 [Example 107, 3-(4-fluoro-3-(trifluoromethyl)benzylamino)-2-(3-fluorophenyl)quinazolin-4(3H)— one]
30 | ≤ 10 | Cc1cccc2nc(-c3ccc(F)cc3)n(NCc3ccc(Br)cc3)c(=O)c12 [Example 111, 3-(4-bromobenzylamino)-2-(4-fluorophenyl)-5-methylquinazolin-4(3H)-one]
31 | ≤ 10 | O=c1c2ccccc2nc(-c2ccsc2)n1NCc1ccc(Br)cc1 [Example 89, 3-(4-bromobenzylamino)-2-(thiophen-3-yl)quinazolin-4(3H)-one]
32 | ≤ 10 | COc1cc(-c2nc3ccccc3c(=O)n2NCc2ccc(Br)cc2)ccc1Cl [Example 74, 3-(4-Bromo-benzylamino)-2-(4-chloro-3-methoxy-phenyl)-3H-quinazolin-4-one]
33 | ≤ 10 | O=c1c2ccccc2nc(-c2cccc(F)c2)n1NCc1ccc(Br)cc1 [Example 105, 3-(4-bromobenzylamino)-2-(3-fluorophenyl)quinazolin-4(3H)-one]
34 | ≤ 10 | O=c1c2cc(O)ccc2nc(-c2ccc(F)cc2)n1NCc1ccc(Cl)cc1 [Example 98, 3-(4-chlorobenzylamino)-2-(4-fluorophenyl)-6-hydroxyquinazolin-4(3H)-one]
35 | ≤ 10 | O=c1c2ccccc2nc(-c2ccc(F)c(F)c2)n1NCc1ccc(Br)cc1 [Example 92, 3-(4-bromobenzylamino)-2-(3,4-difluorophenyl)quinazolin-4(3H)-one]
36 | ≤ 10 | Cc1ccc(-c2nc3ccccc3c(=O)n2NCc2ccc(Cl)cc2)cc1Cl [Example 110, 2-(3-chloro-4-methylphenyl)-3-(4-chlorobenzylamino)quinazolin-4(3H)-one]
37 | ≤ 10 | COc1cc(-c2nc3ccccc3c(=O)n2NCc2ccc(C(F)(F)F)cc2)ccc1C [Example 68, 2-(3-methoxy-4-methylphenyl)-3-(4-(trifluoromethyl)benzylamino)quinazolin-4(3H)-one]
38 | ≤ 10 | COc1cc(-c2nc3ccccc3c(=O)n2NCc2ccc(Cl)cc2)ccc1C [Example 66, 3-(4-chlorobenzylamino)-2-(3-methoxy-4-methylphenyl)quinazolin-4(3H)-one]
